In the OPERA property sets (Mansouri et al. 2018):
≈ marks a conversion by molar mass, not a printed value.

Conditions: for log10 BCF / log10 biotransformation half-life (days): fish

Compound | boiling point | melting point | also measured
C=C1C2CCC(C2)C1(C)C (stereo unspecified) | 160 °C | 51.6 °C | log10 vapour pressure (mmHg): 0.399; ready biodegradability: not readily biodegradable; log10 BCF: 2.98; log10 biotransformation half-life (days): 0.96
CCOS(=O)OCC | 158 °C | – | –
CC(=O)[O-].[Na+] | – | 324 °C | –
CCC(=O)CC(C)C | 135 °C | – | –
COC(=O)c1ccc(C(=O)OC)cc1 | 288 °C | 141 °C | log10 vapour pressure (mmHg): -2; ready biodegradability: readily biodegradable
COc1ccccc1OC(=O)Oc1ccccc1OC | – | 89 °C | –
C[C@]12C=CC(=O)C=C1[C@@H](F)C[C@@H]1[C@@H]2[C@@H](O)C[C@@]2(C)[C@H]1CC[C@]2(O)C(=O)CO | – | 210 °C | –
CCCCCN1CCCCC1 | 198 °C | – | –
Cc1cc(C)c(C(C)C)cc1C | 221 °C | 21 °C | –
CN1CCCC1 | 81 °C | – | log10 Henry constant (atm·m³/mol): -4.52; log10 Koa: 3.64; log10 vapour pressure (mmHg): 2
COc1nccnc1CC(C)C | – | – | log10 Henry constant (atm·m³/mol): -4.31
C[Si](Cl)(c1ccccc1)c1ccccc1 | 295 °C | – | –
C#CC(C)N(C(=O)CCl)c1ccccc1 (stereo unspecified) | – | 43.5 °C | –
Nc1ccc2ccc3ccccc3c2c1 | – | 143 °C | –
Fc1c(F)c(F)c(Cl)c(F)c1F | 118 °C | – | log10 vapour pressure (mmHg): 1.25
OCCCO | 214 °C | -26.7 °C | log10 vapour pressure (mmHg): -1.36
ClC(Br)C(Cl)Br (stereo unspecified) | 195 °C | -26 °C | –
C=CC(OC)OC | 88 °C | – | –
CCCCC1CCCCC1 | 181 °C | -74.7 °C | log10 vapour pressure (mmHg): 0.119
CC(C)NC(=O)COC(=O)c1ccccc1 | – | 130 °C | –
c1ccc2scnc2c1 | 231 °C | 2 °C | ready biodegradability: not readily biodegradable; log10 BCF: 0.88; log10 biotransformation half-life (days): -0.86
OCc1cccc(I)c1 | 252 °C | – | –
CC(C(=O)O)c1ccc2c(c1)[nH]c1ccc(Cl)cc12 (stereo unspecified) | – | 198 °C | –
C[Si](C)(C)Oc1ccccc1 | 119 °C | -55 °C | –
CCCCCCCC(=O)OCCC | 226 °C | -46.2 °C | –
CC(C)C(C)C(C)(C)C (stereo unspecified) | 133 °C | -121 °C | log10 vapour pressure (mmHg): 1.1

Compound | boiling point | melting point | also measured
CCC(=NO)C(C)=NO | – | 172 °C | –
CC/C=C/C=C/C=O | – | 84.5 °C | –
CC(C)=NOCCOC(=O)[C@@H](C)Oc1ccc(Oc2cnc3cc(Cl)ccc3n2)cc1 | – | 66.3 °C | log10 vapour pressure (mmHg): -11.5
N#Cc1ccc2ccccc2n1 | – | 95 °C | –
Nc1cccc2c1Cc1ccccc1-2 | – | 126 °C | –
Brc1ccoc1 | 103 °C | – | –
c1ccc(-c2ccncn2)cc1 | – | 56 °C | –
COc1ccc([N+](=O)[O-])c(N)c1 | – | 131 °C | –
Cc1cc(C)ncn1 | 159 °C | 25 °C | –
Cc1cc2c(cc1O)[C@@]1(C)CCCC(C)(C)[C@@H]1CC2=O | – | 250 °C | –
CCCCCCCCCCCCCCCCCCOP(OCCCCCCCCCCCCCCCCCC)OCCCCCCCCCCCCCCCCCC | – | – | ready biodegradability: readily biodegradable
OCCOc1cccc2ccccc12 | – | 45 °C | –
COc1cc(NC(=O)C(N=Nc2ccc(-c3ccc(N=NC(C(C)=O)C(=O)Nc4cc(OC)c(Cl)cc4OC)c(Cl)c3)cc2Cl)C(C)=O)c(OC)cc1Cl (stereo unspecified) | – | – | ready biodegradability: not readily biodegradable
COc1cccc2ccccc12 | 269 °C | – | ready biodegradability: not readily biodegradable; log10 BCF: 2.21; log10 biotransformation half-life (days): 0.39
O=C(Nc1cccc(N(CCO)CCO)c1)c1ccccc1 | – | – | ready biodegradability: not readily biodegradable
CCOC(OCC)(OCC)OCC | 160 °C | – | –
CC(=O)Oc1c(C(C)(C)C)cc([N+](=O)[O-])c(C)c1[N+](=O)[O-] | – | 86.5 °C | –
CCOC(=O)[C@H](O)[C@@H](O)C(=O)OCC | 280 °C | 17 °C | –
CCSSCC | 154 °C | -102 °C | log10 Henry constant (atm·m³/mol): -2.67; log10 vapour pressure (mmHg): 0.631; solubility: 2450 µM (≈ 300 µg/mL)
OC[C@@H]1CCCN2CCCC[C@H]12 | 270 °C | 70 °C | –
CCCC(C)CC(C)C (stereo unspecified) | 133 °C | – | log10 biodegradation half-life (days): 0.778
C=C(Cl)C(=C)Cl | 98 °C | – | –
CCOC(=O)C(C)Oc1ccc(Oc2nc3ccc(Cl)cc3o2)cc1 (stereo unspecified) | – | 86.2 °C | log10 Koc (L/kg): 3.98
CCCCN(C)C(=O)Nc1ccc(Cl)c(Cl)c1 | – | 102 °C | log10 Koc (L/kg): 3.4; ready biodegradability: not readily biodegradable
CCCCN | 78 °C | -50 °C | log10 Henry constant (atm·m³/mol): -4.76; log10 Koa: 3.61; log10 Koc (L/kg): 1.88; log10 vapour pressure (mmHg): 1.97; ready biodegradability: readily biodegradable
CCN(C)CC | 66 °C | -196 °C | –

Compound | boiling point | melting point | also measured
CC(=O)NCC(=O)O | – | 206 °C | –
C=CC(C)(O)CCC=C(C)C (stereo unspecified) | 198 °C | – | log10 Henry constant (atm·m³/mol): -4.67; log10 vapour pressure (mmHg): -0.796; ready biodegradability: readily biodegradable
C1CN1P1(N2CC2)=NP(N2CC2)(N2CC2)=NP(N2CC2)(N2CC2)=N1 | – | 148 °C | –
NCCc1c[nH]c2ccc(O)cc12 | – | 168 °C | –
CN(C)c1ccccc1 | 193 °C | 2.5 °C | log10 Koc (L/kg): 2.26; log10 vapour pressure (mmHg): -0.155; ready biodegradability: not readily biodegradable; log10 BCF: 0.9; log10 biotransformation half-life (days): -0.96
C1CN(CCN2CCOCC2)CCO1 | 285 °C | 75 °C | –
C1CCC2NC2C1 (stereo unspecified) | 150 °C | 21 °C | –
Nc1ccc(C(=O)c2ccccc2)cc1 | – | 122 °C | –
Brc1ccc(Oc2ccc(Br)cc2Br)c(Br)c1 | – | – | log10 Koa: 10.5; log10 vapour pressure (mmHg): -7.15; logP: 6.81; log10 BCF: 5.84; log10 biotransformation half-life (days): 1.6
O=C(Cl)c1ccccc1Cl | 238 °C | -4 °C | –
CCOC(=O)COc1ccc2c(=O)cc(-c3ccccc3)oc2c1 | – | 124 °C | –
CCO[Si](C)(C)C | 76 °C | – | log10 vapour pressure (mmHg): 2.06
CC1(C)CCC(=Cc2ccc(Cl)cc2)C1(O)Cn1cncn1 (stereo unspecified) | – | 140 °C | –
CSC | 37.3 °C | -98.3 °C | log10 Henry constant (atm·m³/mol): -2.79; log10 vapour pressure (mmHg): 2.7
Oc1ccc(Nc2ccccc2)cc1 | 330 °C | 73 °C | –
CC(C)(CCl)C(=O)O | – | 41.5 °C | –
S=C(SSC(=S)N1CCCCC1)N1CCCCC1 | – | 138 °C | –
CCOc1ccc(NC(=O)CC(C)O)cc1 (stereo unspecified) | – | 160 °C | –
CC(C)CN(CC(C)C)CC(C)C | 192 °C | -21.8 °C | –
Clc1cc(Cl)c(-c2ccccc2)c(Cl)c1 | – | – | log10 vapour pressure (mmHg): -3.15
COc1ccc(C[C@H]2c3cc(OC)c(OC)cc3CCN2C)cc1OC | – | 89 °C | –
ClCCC(Cl)Cl | 146 °C | -59 °C | –
C=CC(=C)C | 34 °C | -146 °C | log10 Koa: 2.06; log10 vapour pressure (mmHg): 2.74; ready biodegradability: not readily biodegradable; log10 BCF: 1.3; log10 biotransformation half-life (days): -0.61
CCCC(=O)C1=C(O)C(C)(C)C(O)=C(Cc2c(O)c(C)c(O)c(C(=O)CCC)c2O)C1=O | – | 156 °C | –
CC1OC(C)OC(C)O1 (stereo unspecified) | 124 °C | 12.6 °C | log10 vapour pressure (mmHg): 1.04; ready biodegradability: not readily biodegradable; log10 BCF: 0.48
CC1=CCCC1C (stereo unspecified) | 99 °C | -118 °C | –

Compound | boiling point | melting point | also measured
O=C(c1ccccc1)c1ccc(Cl)cc1 | 332 °C | 77.5 °C | –
CCC(C)C(C)C (stereo unspecified) | 89.7 °C | – | log10 biodegradation half-life (days): 0.845; log10 vapour pressure (mmHg): 1.84
CC(C)CC(=O)CC(C)C | 169 °C | -41.5 °C | log10 vapour pressure (mmHg): 0.217
FC(Cl)C(Cl)Cl (stereo unspecified) | 102 °C | – | –
CCCCCCNC(=O)n1cc(F)c(=O)[nH]c1=O | – | 110 °C | –
Nc1ncnc(Nc2ccc(Cl)cc2)n1 | – | 234 °C | –
CC[C@H]1CN2CCc3cc(OC)c(OC)cc3[C@@H]2C[C@@H]1C[C@H]1NCCc2cc(OC)c(OC)cc21 | – | 74 °C | –
O=C(O)CCCCCCC(=O)O | 346 °C | 144 °C | log10 vapour pressure (mmHg): -6.54
C=C(C)c1cccc(C)c1 | 185 °C | – | –
C=CCN1CC[C@]23CCCC[C@H]2[C@H]1Cc1ccc(O)cc13 | – | 181 °C | –
CC(=O)Nc1ccc(S(=O)(=O)Cl)cc1 | – | 149 °C | –
COc1cc(C(=O)NCc2ccc(OCCN(C)C)cc2)cc(OC)c1OC | – | 189 °C | –
CN(C)CC(=O)O | – | 186 °C | –
Cc1cccc(C)c1N | 215 °C | 11.2 °C | log10 vapour pressure (mmHg): -0.886; ready biodegradability: not readily biodegradable
O=C(O)c1ccc(C(=O)O)cc1 | – | – | log10 vapour pressure (mmHg): -5.04; ready biodegradability: readily biodegradable
CC(=O)CC(=O)O | – | 36.5 °C | –
CCc1ccccn1 | 149 °C | -63.1 °C | log10 Henry constant (atm·m³/mol): -4.78; log10 vapour pressure (mmHg): 0.689
C[n+]1ccc(-c2cc[n+](C)cc2)cc1 | – | – | log10 BCF: 0.28
O=c1c(O)c(-c2ccccc2)oc2ccccc12 | – | 172 °C | –
C=Cc1ccc(N)cc1 | – | 23.5 °C | –
Nc1ccc(Cc2ccc(N)c(Cl)c2Cl)c(Cl)c1Cl | – | – | ready biodegradability: not readily biodegradable
Cc1cccc2c1Cc1ccccc1-2 | – | 85 °C | log10 vapour pressure (mmHg): -3.52
CN(C)c1ccc2cc3ccc(N(C)C)cc3nc2c1 | – | 165 °C | –
CCN(CC)c1ccc([N+](=O)[O-])cc1 | – | 77.5 °C | –
O=c1ccc2ccccc2[nH]1 | – | 200 °C | –
FC(F)(F)C1(F)OC1(F)F (stereo unspecified) | -27.4 °C | – | –

Compound | boiling point | melting point | also measured
OCc1ccc(CO)cc1 | – | 118 °C | –
CCCCCCCCCCCCCCCc1ccccc1 | 373 °C | 22 °C | log10 vapour pressure (mmHg): -5.14
FC(F)(F)C(Cl)(Cl)C(Cl)(Cl)C(F)(F)F | 131 °C | 83.5 °C | –
O=C(Nc1ccccc1)Nc1cnns1 | – | – | log10 Koc (L/kg): 2.04; log10 vapour pressure (mmHg): -10.6
CCON=C(CC)C1=C(O)CC(c2c(C)cc(C)cc2C)CC1=O (stereo unspecified) | – | 106 °C | log10 vapour pressure (mmHg): -8.56
CC(C)CCOc1ccc(NC(=S)Nc2ccc(OCCC(C)C)cc2)cc1 | – | 146 °C | –
CC1=CC(=O)C=C(C)C1=O | – | 72.5 °C | –
O=C(Nc1ccccc1)NC1CC1 | – | – | log10 Koc (L/kg): 1.74
O[C@@H]1CCc2ccccc21 | 220 °C | 54.8 °C | –
Nc1cc2ccccc2c2ccccc12 | – | 138 °C | –
[N-]=[N+]=Nc1ccc(Cl)cc1 | – | 20 °C | –
O=C(Cl)C=Cc1ccccc1 | 257 °C | 36 °C | –
CCCS(=O)CCC | – | 22.5 °C | –
Cc1ccccc1C(=O)Cl | 214 °C | – | –
O=C(O)c1cccc(C(=O)O)n1 | – | – | ready biodegradability: readily biodegradable
CCC(=O)c1ccc(O)cc1O | – | 99 °C | –
O=C(Cl)/C=C/C(=O)Cl | 159 °C | – | log10 vapour pressure (mmHg): 0.316
Nc1ccc(/C=C/c2ccc(N)cc2S(=O)(=O)O)c(S(=O)(=O)O)c1 | – | – | ready biodegradability: not readily biodegradable
BrC=Cc1ccccc1 | – | 7 °C | ready biodegradability: not readily biodegradable
O=Cc1ccc(Cl)cc1 | 214 °C | 47.5 °C | log10 BCF: 0.32; log10 biotransformation half-life (days): 0.01
c1ccc2c(c1)cc1ccc3c4ccccc4cc4ccc2c1c43 | – | 317 °C | –
Cc1ccc(CCl)cc1 | 201 °C | – | log10 vapour pressure (mmHg): -0.527
